Patent US8518923B2, “Treatment or prevention of hypertensive disorders of pregnancy or fetal growth retardation” (Pantarhei Bioscience B.V., priority 2007, dated 2013)

Key:
Myometrial arteries = experiment: Ex-vivo relaxation response in myometrial arteries on pressure myograph; design: species or system human; conditions: for relaxation in myometrial arteries: arteries from normal pregnant women, pressure myograph, concentration response (FIG. 1)
Description: (§1) To evaluate acute dilatory responses to estetrol in human vasculature ex-vivo, the following study has been conducted. Myometrial arteries and subcutaneous arteries (diameter: 220 μm; length: 2-3 mm) were dissected from normal pregnant women undergoing planned caesarian section. Myometrial arteries are present in the uterus and are branches from the arteria uterina. Cigarette smokers and women with hypertension, diabetes mellitus, clinical manifestations of arteriosclerosis (CHD, peripheral artery disease, cerebrovascular disease), venous thromboembolic disease, liver disorders, unexplained vaginal bleeding, and personal or family history of breast cancer were excluded. None had received HRT, other steroid hormones, or any medication known to affect lipoprotein metabolism or blood pressure. The dissected arteries were mounted on a pressure myograph (LSI, USA). The organ bath was perfused (7 ml/min) with PSS (mM: NaCl 119, KCl 4.7, CaCl2 2.5, MgSO4 1.17, NaHCO3 25, KH2PO4 1.18, EDTA 0.026 and glucose 5.5; pH 7.4, 37° C., gassed with 5% CO2 in O2). […] FIG. 1 depicts the response curve of estetrol and PPT in the myometrial arteries. The number of subjects is mentioned in parenthesis.

subcutaneous arteries = experiment: Ex-vivo relaxation response in subcutaneous arteries on pressure myograph; design: species or system human; conditions: arteries from normal pregnant women, concentration response (FIG. 2)
Description: as §1, with “FIG. 2” for “FIG. 1”, “the subcutaneous” for “the myometrial”, “arteries. Again, the” for “arteries. The”

Compound	relaxation in myometrial arteries (Myometrial arteries)	selective effect: relaxation in myometrial arteries compared to subcutaneous arteries (Myometrial arteries; comparison of FIGS. 1 and 2)	relaxation in subcutaneous arteries (subcutaneous arteries)
C[C@]12CC[C@@H]3c4ccc(O)cc4CC[C@H]3[C@@H]1[C@@H](O)[C@@H](O)[C@@H]2O [estetrol, 1,3,5 (10)-estratrien-3,15α,16α,17β-tetrol]	capable of inducing relaxation	more pronounced in the myometrial arteries compared to the subcutaneous arteries	capable of inducing relaxation
CCCc1c(-c2ccc(O)cc2)nn(-c2ccc(O)cc2)c1-c1ccc(O)cc1 [PPT, [1H]-pyrazole-1,3,5-tri-trisphenol, reference compound]	capable of inducing relaxation	–	capable of inducing relaxation
